PubChem BioAssay AID248 (DTP/NCI, 2004)
Where “and” joins values, the source holds several entries; their conditions need not be identical. Equal values may be shown once. Toxic doses and inconclusive results are not listed. No stated cut-off is given here; in the data, active means T/C of 150% or more; inactive means T/C below 125%.

System: L1210 leukemia ip in BDF1 mice, survival T/C
Test: NCI In Vivo Anticancer Drug Screen. Data for tumor model L1210 Leukemia (intraperitoneal) in B6D2F1 (BDF1) mice
Settings: endpoint: mean survival time, higher = longer survival
Summary of the method: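 Antitumor effect is assessed in tumor-bearing animals. Survival in the compound arm is compared with a vehicle-dosed control arm and expressed as their quotient.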

[1] = dose: 100.0 mg/kg/injection, schedule: Q01DX001 (ip), vehicle: carboxymethylcellulose (CMC)
[2] = dose: 200.0 mg/kg/injection, schedule: Q01DX001 (ip), vehicle: carboxymethylcellulose (CMC)
[3] = dose: 400.0 mg/kg/injection, schedule: Q01DX001 (ip), vehicle: carboxymethylcellulose (CMC)
[4] = dose: 100.0 mg/kg/injection, schedule: Q01DX009 (ip), vehicle: Klucel (hydroxypropylcellulose) (HPC)
[5] = dose: 200.0 mg/kg/injection, schedule: Q01DX009 (ip), vehicle: Klucel (hydroxypropylcellulose) (HPC)
[6] = dose: 400.0 mg/kg/injection, schedule: Q01DX009 (ip), vehicle: Klucel (hydroxypropylcellulose) (HPC)
[7] = dose: 100.0 mg/kg/injection, schedule: Q04DX003 (ip), vehicle: Klucel (hydroxypropylcellulose) (HPC)
[8] = dose: 200.0 mg/kg/injection, schedule: Q04DX003 (ip), vehicle: Klucel (hydroxypropylcellulose) (HPC)
[9] = dose: 400.0 mg/kg/injection, schedule: Q04DX003 (ip), vehicle: Klucel (hydroxypropylcellulose) (HPC)
[10] = dose: 100.0 mg/kg/injection, schedule: Q01DX009 (ip), vehicle: saline
[11] = dose: 100.0 mg/kg/injection, schedule: Q04DX003 (ip), vehicle: saline
[12] = dose: 100.0 mg/kg/injection, schedule: Q04DX003 (ip), vehicle: carboxymethylcellulose (CMC)
[13] = dose: 200.0 mg/kg/injection, schedule: Q04DX003 (ip), vehicle: carboxymethylcellulose (CMC)
[14] = dose: 100.0 mg/kg/injection, schedule: Q01DX009 (ip), vehicle: saline with Tween-80
[15] = dose: 200.0 mg/kg/injection, schedule: Q01DX009 (ip), vehicle: saline with Tween-80
[16] = dose: 400.0 mg/kg/injection, schedule: Q01DX009 (ip), vehicle: saline with Tween-80
[17] = dose: 100.0 mg/kg/injection, schedule: Q01DX001 (ip), vehicle: other
[18] = dose: 400.0 mg/kg/injection, schedule: Q01DX001 (ip), vehicle: other

Measured: T/C

C=CCNc1ccc([N+](=O)[O-])cc1[N+](=O)[O-]
inactive: dose: 100.0 mg/kg/injection, schedule: Q01DX001 (ip), vehicle: steriod suspending solution 91 % of control | dose: 200.0 mg/kg/injection, schedule: Q01DX001 (ip), vehicle: steriod suspending solution 98 % of control

C[N+]1=C(/C=C\c2ccc3cccnc3c2O)C(C)(C)c2cc(F)ccc21
inactive: [1] 93 % of control | [2] 95 % of control | [3] 88 % of control

CCOc1ccccc1NC(=O)Nc1ccccc1C(F)(F)F
inactive: [4] 94 % of control | [5] 96 % of control | [6] 91 % of control

Cc1nnn(N/N=C(\C(=O)Oc2ccccc2)c2ccccc2)c1C
inactive: [7] 100 % of control | [8] 103 % of control | [9] 96 % of control

COc1ccc(NC(=O)N(c2ccccc2)C(C)C)c(OC)c1
inactive: [4] 97 % of control | [5] 94 % of control | [6] 102 % of control

CN(C)CCC(c1ccccc1)c1cc(Cl)ccn1 (stereo not drawn)
inactive: dose: 6.25 mg/kg/injection, schedule: Q01DX009 (ip), vehicle: saline 95 % of control | dose: 12.5 mg/kg/injection, schedule: Q01DX009 (ip), vehicle: saline 97 % of control | dose: 12.5 mg/kg/injection, schedule: Q04DX003 (ip), vehicle: saline 106 % of control | dose: 25.0 mg/kg/injection, schedule: Q01DX009 (ip), vehicle: saline 95 % of control | dose: 25.0 mg/kg/injection, schedule: Q04DX003 (ip), vehicle: saline 103 % of control | dose: 50.0 mg/kg/injection, schedule: Q01DX009 (ip), vehicle: saline 97 % of control | dose: 50.0 mg/kg/injection, schedule: Q04DX003 (ip), vehicle: saline 103 % of control | [10] 100 % of control | [11] 106 % of control

CCN(CC)C(=O)CS(=O)(=O)c1ccc(N)cc1
inactive: dose: 100.0 mg/kg/injection, schedule: Q04DX003 (ip), vehicle: saline with Tween-80 102 % of control | dose: 200.0 mg/kg/injection, schedule: Q04DX003 (ip), vehicle: saline with Tween-80 97 % of control | dose: 400.0 mg/kg/injection, schedule: Q04DX003 (ip), vehicle: saline with Tween-80 100 % of control

O=C(Nc1ccccc1C(=O)N/N=C/c1ccccc1O)c1ccccc1Cl
inactive: [4] 94 % of control | [5] 94 % of control | [6] 94 % of control

O=C(O)c1cc(OCc2ccccc2)cc(OCc2ccccc2)c1
inactive: dose: 25.0 mg/kg/injection, schedule: Q01DX009 (ip), vehicle: carboxymethylcellulose (CMC) 102 % of control and 105 % of control | dose: 50.0 mg/kg/injection, schedule: Q01DX009 (ip), vehicle: carboxymethylcellulose (CMC) 101 % of control and 91 % of control | [1] 101 % of control and 103 % of control | dose: 100.0 mg/kg/injection, schedule: Q01DX009 (ip), vehicle: carboxymethylcellulose (CMC) 92 % of control and 112 % of control and 91 % of control | dose: 100.0 mg/kg/injection, schedule: Q04DX002 (ip), vehicle: carboxymethylcellulose (CMC) 92 % of control and 88 % of control | [12] 95 % of control and 97 % of control | [2] 96 % of control and 107 % of control | dose: 200.0 mg/kg/injection, schedule: Q04DX002 (ip), vehicle: carboxymethylcellulose (CMC) 95 % of control and 97 % of control | [13] 99 % of control and 91 % of control | [3] 93 % of control and 96 % of control | dose: 400.0 mg/kg/injection, schedule: Q04DX002 (ip), vehicle: carboxymethylcellulose (CMC) 92 % of control and 97 % of control | dose: 400.0 mg/kg/injection, schedule: Q04DX003 (ip), vehicle: carboxymethylcellulose (CMC) 92 % of control and 100 % of control

CCOC(=O)C1c2cc3c(cc2C(c2cc(OC)c(OC)c(OC)c2)C2C(=O)OCC12)OCO3 (stereo not drawn)
inactive: dose: 2.5 mg/kg/injection, schedule: Q01DX009 (ip), vehicle: Klucel (hydroxypropylcellulose) (HPC) 112 % of control | dose: 3.0 mg/kg/injection, schedule: Q01DX009 (ip), vehicle: Klucel (hydroxypropylcellulose) (HPC) 124 % of control | dose: 4.0 mg/kg/injection, schedule: Q01DX009 (ip), vehicle: Klucel (hydroxypropylcellulose) (HPC) 105 % of control | dose: 6.0 mg/kg/injection, schedule: Q01DX009 (ip), vehicle: Klucel (hydroxypropylcellulose) (HPC) 113 % of control | dose: 9.0 mg/kg/injection, schedule: Q01DX009 (ip), vehicle: Klucel (hydroxypropylcellulose) (HPC) 115 % of control | dose: 12.5 mg/kg/injection, schedule: Q01DX009 (ip), vehicle: Klucel (hydroxypropylcellulose) (HPC) 88 % of control

CCCCS/C=C1\CCC2(C)CCCCC2C1=O (stereo not drawn)
inactive: dose: 100.0 mg/kg/injection, schedule: Q04DX002 (ip), vehicle: saline with Tween-80 100 % of control | dose: 200.0 mg/kg/injection, schedule: Q04DX002 (ip), vehicle: saline with Tween-80 100 % of control | dose: 400.0 mg/kg/injection, schedule: Q04DX002 (ip), vehicle: saline with Tween-80 120 % of control

CCOC1=C(Br)C=CN(S(=O)(=O)c2ccc(C)cc2)c2ccc(OC)cc21
inactive: [4] 98 % of control | [7] 95 % of control | [5] 101 % of control | [8] 101 % of control | [6] 100 % of control | [9] 91 % of control

S=c1cccc[nH]1
inactive: [7] 101 % of control | [8] 102 % of control | [9] 96 % of control

CCP(=S)(CC)CCCCP(=S)(CC)CC
inactive: [14] 94 % of control | [15] 89 % of control | [16] 86 % of control

CC(C)n1cnc2nc[nH]c2c1=S
inactive: dose: 25.0 mg/kg/injection, schedule: Q01DX001 (ip), vehicle: Klucel (hydroxypropylcellulose) (HPC) 91 % of control | dose: 25.0 mg/kg/injection, schedule: Q04DX003 (ip), vehicle: Klucel (hydroxypropylcellulose) (HPC) 95 % of control | dose: 50.0 mg/kg/injection, schedule: Q01DX001 (ip), vehicle: Klucel (hydroxypropylcellulose) (HPC) 95 % of control | dose: 50.0 mg/kg/injection, schedule: Q04DX003 (ip), vehicle: Klucel (hydroxypropylcellulose) (HPC) 102 % of control | dose: 100.0 mg/kg/injection, schedule: Q01DX001 (ip), vehicle: Klucel (hydroxypropylcellulose) (HPC) 98 % of control | [7] 92 % of control

O=C1C=CC(=Nc2ccc(O)c3ncccc23)c2cccnc21
inactive: [17] 104 % of control and 114 % of control | dose: 200.0 mg/kg/injection, schedule: Q01DX001 (ip), vehicle: other 106 % of control and 108 % of control | [18] 102 % of control

COc1cc(C=Nc2ccccc2)cc(OC)c1OC
inactive: [7] 104 % of control | [8] 102 % of control | [9] 95 % of control

CCOC(=O)CN1CCC(C(=O)OC)CC1
inactive: [10] 96 % of control | [11] 112 % of control | dose: 200.0 mg/kg/injection, schedule: Q01DX009 (ip), vehicle: saline 98 % of control | dose: 200.0 mg/kg/injection, schedule: Q04DX003 (ip), vehicle: saline 124 % of control | dose: 400.0 mg/kg/injection, schedule: Q01DX009 (ip), vehicle: saline 112 % of control | dose: 400.0 mg/kg/injection, schedule: Q04DX003 (ip), vehicle: saline 96 % of control

Cc1ccc(S(=O)(=O)NC(c2ccccc2)(c2ccccc2)c2ccccc2)cc1
inactive: [14] 96 % of control | dose: 100.0 mg/kg/injection, schedule: Q04DX003 (ip), vehicle: acetone 96 % of control | [15] 88 % of control | dose: 200.0 mg/kg/injection, schedule: Q04DX003 (ip), vehicle: acetone 95 % of control | [16] 93 % of control | dose: 400.0 mg/kg/injection, schedule: Q04DX003 (ip), vehicle: acetone 96 % of control

Nc1nc(N)[n+]([O-])c(N)c1NCO
inactive: dose: 88.0 mg/kg/injection, schedule: Q01DX001 (ip), vehicle: other 101 % of control | [17] 97 % of control | dose: 133.0 mg/kg/injection, schedule: Q01DX001 (ip), vehicle: other 103 % of control | dose: 300.0 mg/kg/injection, schedule: Q01DX001 (ip), vehicle: other 103 % of control | [18] 94 % of control

N#CC1(C(N)=O)OC1c1ccccc1Cl (stereo not drawn)
inactive: [12] 97 % of control | [13] 98 % of control

Clc1ccc(/C=C\c2ccncc2)cc1
inactive: dose: 50.0 mg/kg/injection, schedule: Q01DX001 (ip), vehicle: carboxymethylcellulose (CMC) 102 % of control | [1] 98 % of control | [2] 119 % of control | [3] 98 % of control

OCC(I)CO
inactive: dose: 100.0 mg/kg/injection, schedule: Q01DX001 (ip), vehicle: saline 106 % of control
